Where two headings read alike, the source gives them in different places.
Key:
MC3T3-E1 cell line [1] = experiment: MTT cytotoxicity assay, dose-response in MC3T3-E1 cells; assay type: cell-based; conditions: read-out: Toxicity IC50
Excerpt: Without wishing to be bound by any theory, it is believed that the ionic liquids (ILs) structures prevent the hydrophobic effects of the imidazolium cation and thus cellular uptake by the introduction of a second cationic head. These structures, which are formed by two imidazolium rings linked by an alkyl chain and anionic counterpart, may result in non-toxic compounds because the dicationic structure will not be able to penetrate and alter the physical properties of the lipid bilayer. The ionic liquids were synthesized and performed preliminary studies with the dicationic imidazolium-based IL compounds as described above, and the IC50 values were assessed through MTT assay (Gindri et al., 2014).
The ionic liquids were synthesized and performed preliminary studies with the dicationic imidazolium-based IL compounds as described above, and the IC50 values were assessed through MTT assay (Egorova et al., 2014). The toxicity of ionic liquids was accessed using MC3T3-E1 cell lines. The cells were plated in 6-well plates and after 24 h, cells were treated with media containing a range of concentrations of ionic liquids. All concentrations tested for generation of dose-response curves. A non-linear regression sigmoidal dose-response curve was fitted to each set of values to allow the calculation of IC50 values.

[2] = DLS of TiO2 particles and equimolar TiO2 + ionic liquid; assay type: physicochemical; conditions: for Rh1 hydrodynamic radius: IL + TiO2, relaxation mode 1; for Rh2 hydrodynamic radius: IL + TiO2, relaxation mode 2; for Thickness of IL film on TiO2 particles: difference IL + TiO2 minus TiO2
Method: To evaluate the morphologic characteristics of new structures formed by TiO2+ionic liquid both DLS and SEM techniques were used. […] DLS experiments were performed with TiO2 particles only, and with solutions of equimolar amounts of TiO2+ionic liquid. The hydrodynamic radius (Rh) of pure TiO2 particles and mixture of TiO2+ionic liquid was monitored and compared in order to analyze the formation of new organized phases related to ionic liquid film adhesion on TiO2 particles. […] The value from the difference between the size of TiO2+ionic liquid and TiO2 was used to calculate ionic liquid film thickness formed on TiO2 particles.
Comparing the data between pure TiO2 and the mixtures of [DBMIM]2[Br], [DBMIM]2[BF4] and [DBMIM]2[NTf2], it can be observed that in the first relaxation mode (Rh1) a small difference was detected between the size of the particles, which can be related with the single TiO2 nanoparticles, [DBMIM]2[Br], [DBMIM]2[BF4] and [DBMIM]2[NTf2] dispersed in solution. However, in the second relaxation mode a significant difference was noted between the size of pure TiO2 nanoparticles and TiO2+ionic liquid (Table 6). It was observed that Rh2 tended to increase with ionic liquid presence, which thus indicates film formation on the particles surface. Another interesting characteristic from the DLS results is that film thickness increased with hydrophobicity of anions (FIG. 1), which is in agreement with the trend reported by Ulbricht and Wittmar, 2012.

[3] = Thermal analysis of pure ionic liquid and equimolar mixture with TiO2 nanoparticles; assay type: physicochemical
Method: In order to evaluate the affinity of ionic liquids with the titanium surface, experiments were conducted with imidazole derived ionic liquids having as contra-ion the anions Br^−, BF4^− and NTf2^−. In the study, TiO2 nanoparticles were used instead of bulk titanium in order to allow for a better understanding of the interaction of the selected ionic liquids with the Ti oxide film (TiO2). Thermal behavior of TiO2 pure (nanoparticles), ionic liquid pure and the equimolar mixture of TiO2 and the different ionic liquids attempted were evaluated. […] Based upon the loss of a glass transition and the introduction of a new melting point for the TiO2 nanoparticle and the [DBMIM]2[NTf2], without wishing to be bound by any theory, it is believed that a more organized structural arrangement is formed (Grindri, et al., 2014).

[4] = test system: gingival epithelial (HGF-1); experiment: Cell proliferation (MTT) on IL-coated Ti, gingival epithelial cells; assay type: cell-based; conditions: HGF-1, 1 and 7 days
S. mutans = S. mutans planktonic and biofilm CFU on IL-coated Ti in artificial saliva/BHI; assay type: cell-based, Streptococcus mutans
Method: To determine if ILs retain antimicrobial activity when applied to Ti, preliminary experiments with two ILs (IL9 and IL12) and S. mutans, an early colonizer. Control Ti, IL9-coated Ti, and IL12-coated Ti were immersed in artificial saliva/brain heart infusion (BHI) medium containing S. mutans for 24 h and 72 h. After this period, planktonic bacterial cells in the fluid medium in which disks were immersed, and biofilm cells, adhered to the disk surface, were quantified by serial dilution and plating.

[5] = test system: osteoblast-like cells (MC3T3-E1); experiment: Cell proliferation (MTT) on IL-coated Ti, osteoblast-like cells; assay type: cell-based; conditions: MC3T3-E1, 1 and 7 days
[6] = test system: osteoblast-like cells (MC3T3-E1); experiment: Alkaline phosphatase activity / osteoblast differentiation on IL-coated Ti; assay type: cell-based; conditions: day 1 and day 7
Excerpt: FIGS. 6A-6F show osteoblast identification through alkaline phosphatase assay. Ti Control on day 1 (FIG. 6A) and day 7 (FIG. 6D) along with IL9 coated Ti shown on day 1 (FIG. 6B) and day 7 (FIG. 6E) are shown. […] Cell differentiation was observed after 7 days on Ti control and IL9 coated Ti in which osteoblast are distinguished from stem cells by the purple color of the stain as indicated by the black arrows. […] As such, these compounds can be considered to be non-toxic to cells while still maintaining anti-microbial properties.
Experiments were performed in which Ti control disks, IL9-coated Ti, and IL12-coated Ti were exposed to gingival epithelial (HGF-1) and osteoblast-like cells (MC3T3-E1) during periods of 1 and 7 days. It was observed that after 1 day both Ti control and IL-coated Ti were covered with a layer of osteoblast-like cells (FIGS. 6A & 6B) illustrating the initial cell attachment on the surface. […] In vitro and in vivo osteoblast cell differentiation can be characterized during a phase denominated matrix maturation. During this period, a high expression of alkaline phosphatase (AP) is observed and can be used as an early differentiation marker to evaluate the differentiation of stem cells into osteoblasts (Shang et al., 2014 and Wang et al., 2012). […]

MC3T3-E1 cell line [7] = conditions: monocationic analogue of IL1, comparison value; read-out: IC50 of monocationic IL; cited from earlier work

**Q.** Which IC50 (MC3T3-E1 cell line [1]) does the source give for “1,8-Bis(3-methylimidazolium-1-yl)octane diascorbate [IL-2]” here?
**A.** The IC50 was 3.6 ± 0.6 mM.

**Q.** For “1,8-Bis(3-methylimidazolium-1-yl)octane dihistidine [IL-5]”, which IC50 (MC3T3-E1 cell line [1]) is on record?
**A.** Its IC50 is 25.7 ± 8.7 mM.

**Q.** Which IC50 (MC3T3-E1 cell line [1]) does the source give for “1,8-Bis(3-methylimidazolium-1-yl)octane dileucine [IL-4]” here?
**A.** The IC50 was 12.5 ± 0.2 mM.

**Q.** With “1,8-Bis(3-methylimidazolium-1-yl)octane dimethionine [IL-6]” as the molecule, how does the IC50 (MC3T3-E1 cell line [1]) read?
**A.** Its IC50 is 24.2 ± 10.3 mM.

**Q.** For “1,8-Bis(3-methylimidazolium-1-yl)octane diphenylalanine [IL-3]”, which IC50 (MC3T3-E1 cell line [1]) is on record?
**A.** The IC50 was 8.3 ± 3 mM.

**Q.** With “1,8-bis(3-methylimidazolium-1-yl)octane bis (trifluoromethane) sulfonimide [IL-14]” as the molecule, how does the Rh1 hydrodynamic radius [2] read?
**A.** Its Rh1 hydrodynamic radius is 1.6 nm.

**Q.** And the Rh2 hydrodynamic radius [2]?
**A.** The Rh2 hydrodynamic radius was 894.6 nm.

**Q.** What about the “Thickness of IL film on TiO2 particles” value ([2]; relaxation mode 1) of the same molecule?
**A.** Its value is 0.9 nm.

**Q.** What about the “Thickness of IL film on TiO2 particles” value ([2]; relaxation mode 2) of the same molecule?
**A.** Its value is 591.1 nm.

**Q.** And the “Td1 first decomposition temperature” value ([3]; IL + TiO2 equimolar mixture)?
**A.** Its value is 463 °C.

**Q.** What about the “Td1 first decomposition temperature” value ([3]; pure ionic liquid) of the same molecule?
**A.** Its value is 473 °C.

**Q.** Which Rh1 hydrodynamic radius [2] does the source give for `C[n+]1ccn(CCCCCCCCn2cc[n+](C)c2)c1.[Br-].[Br-]` [IL-1, 1,8-bis(3-methylimidazolium-1-yl) octane bromide] here?
**A.** Its Rh1 hydrodynamic radius is 0.8 nm.

**Q.** What about the Rh2 hydrodynamic radius [2] of the same molecule?
**A.** The Rh2 hydrodynamic radius was 421.9 nm.

**Q.** And the “Thickness of IL film on TiO2 particles” value ([2]; relaxation mode 1)?
**A.** The value was 0.2 nm.

**Q.** And the “Thickness of IL film on TiO2 particles” value ([2]; relaxation mode 2)?
**A.** Its value is 118.4 nm.

**Q.** And the “Td1 first decomposition temperature” value ([3]; IL + TiO2 equimolar mixture)?
**A.** Its value is 310.0 °C.

**Q.** And the “Td2 second decomposition temperature” value ([3]; IL + TiO2 equimolar mixture)?
**A.** Its value is 372.9 °C.

**Q.** And the “Td1 first decomposition temperature” value ([3]; pure ionic liquid)?
**A.** Its value is 307.5 °C.

**Q.** And the IC50 (MC3T3-E1 cell line [1]; Mus musculus)?
**A.** Its IC50 is 24.6 ± 3.5 mM.

**Q.** With `C[n+]1ccn(CCCCCCCCCCn2cc[n+](C)c2)c1.[Br-].[Br-]` [IL-7, 1,10-Bis(3-methylimidazolium-1-yl)decane dibromide] as the molecule, how does the melting point read?
**A.** Its melting point is 130.77 °C.

**Q.** What about the IC50 (MC3T3-E1 cell line [1]; Mus musculus) of the same molecule?
**A.** The IC50 was 12.3 ± 0.1 mM.

**Q.** With `C[n+]1ccn(CCCCCCCCCCn2cc[n+](C)c2)c1` [IL-8, 1,10-Bis(3-methylimidazolium-1-yl)decane diascorbate] as the molecule, how does the IC50 (MC3T3-E1 cell line [1]) read?
**A.** Its IC50 is 3.1 ± 1.2 mM.

**Q.** What does the source list for `C[n+]1ccn(CCCCCCCCCCn2cc[n+](C)c2)c1.NC(Cc1ccccc1)C(=O)[O-].NC(Cc1ccccc1)C(=O)[O-]` [IL-9, 1,10-Bis(3-methylimidazolium-1-yl)decane diphenylalanine]?
**A.** Cell proliferation versus Ti control [4]: did not show significant differences; Anti-S. mutans activity of coated surface (S. mutans; 72 h trial): retain significant anti-S. mutans activity; S. mutans recovered from coated Ti surfaces (S. mutans; biofilm cells after 24 h, control Ti ~10^6 CFU): ~10^2 CFU; Cell proliferation versus Ti control [5]: did not show significant differences; IC50 (MC3T3-E1 cell line [1]): 8.5 ± 1.5 mM; ALP activity / cell differentiation versus Ti control [6]: without statistically significant differences

**Q.** For `CC(C)C[C@H](N)C(=O)O.CC(C)C[C@H](N)C(=O)O.C[n+]1ccn(CCCCCCCCCCn2cc[n+](C)c2)c1` [IL-10, 1,10-Bis(3-methylimidazolium-1-yl)decane dileucine], which IC50 (MC3T3-E1 cell line [1]) is on record?
**A.** Its IC50 is 12.3 ± 0.5 mM.

**Q.** For `C[n+]1ccn(CCCCCCCCCCn2cc[n+](C)c2)c1.N[C@@H](Cc1c[nH]cn1)C(=O)O.N[C@@H](Cc1c[nH]cn1)C(=O)O` [IL-11, 1,10-Bis(3-methylimidazolium-1-yl)decane dihistidine], which IC50 (MC3T3-E1 cell line [1]) is on record?
**A.** Its IC50 is 12.9 ± 1.1 mM.

**Q.** For `CSCC[C@H](N)C(=O)O.CSCC[C@H](N)C(=O)O.C[n+]1ccn(CCCCCCCCCCn2cc[n+](C)c2)c1` [IL-12, 1,10-Bis(3-methylimidazolium-1-yl)decane dimethionine], which “Antimicrobial activity of coated Ti against S. mutans” value (S. mutans; 24 h and 72 h immersion) is on record?
**A.** The value was “did not show significant antimicrobial activity”.

**Q.** What about the IC50 (MC3T3-E1 cell line [1]) of the same molecule?
**A.** Its IC50 is 13.9 ± 2.7 mM.

**Q.** For `C[n+]1ccn(CCCCCCCCn2cc[n+](C)c2)c1.F[B-](F)(F)F.F[B-](F)(F)F` [IL-13, 1,8-bis(3-methylimidazolium-1-yl) octane tetrafluorborate], which Rh1 hydrodynamic radius [2] is on record?
**A.** Its Rh1 hydrodynamic radius is 0.7 nm.

**Q.** What about the Rh2 hydrodynamic radius [2] of the same molecule?
**A.** Its Rh2 hydrodynamic radius is 513.0 nm.

**Q.** And the “Thickness of IL film on TiO2 particles” value ([2]; relaxation mode 1)?
**A.** Its value is 0.1 nm.

**Q.** And the “Thickness of IL film on TiO2 particles” value ([2]; relaxation mode 2)?
**A.** Its value is 209.5 nm.

**Q.** What about the “Td1 first decomposition temperature” value ([3]; IL + TiO2 equimolar mixture) of the same molecule?
**A.** The value was 343.8 °C.

**Q.** And the “Td2 second decomposition temperature” value ([3]; IL + TiO2 equimolar mixture)?
**A.** The value was 455.8 °C.

**Q.** And the “Td1 first decomposition temperature” value ([3]; pure ionic liquid)?
**A.** The value was 346.8 °C.

**Q.** And the “Td2 second decomposition temperature” value ([3]; pure ionic liquid)?
**A.** Its value is 455.8 °C.

**Q.** For `CCCCCCCCn1cc[n+](C)c1` [[C8mim][Br]], which IC50 (MC3T3-E1 cell line [7]) is on record?
**A.** The IC50 was 1.51 ± 0.2 mM.

Source: US10370327B2, “Ionic liquid films with multiple functionalities for surface modification of biomedical alloys” (BOARD OF REGENTS, THE UNIVERSITY OF TEXAS SYSTEM, priority 2014, dated 2019)
